Several values for one entry are separate records, joined by “and”; a condition that tells them apart may be missing. Equal entries are not always repeated.
System: COR L88 complex tumor spheroid viability
Assay: Anticancer human tumor COR L88 cell line growth inhibition;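 further: compound exposure lasted 7 days before viability readout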;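 on viability, T/C: percent of DMSO vehicle-treated spheroids = 100%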
Conditions: for viability, T/C: stronger effect = lower value
Excerpt: Multicellular complex tumor spheroid response to DNA repair inhibitors in combination with DNA-damaging drugs
This study explores the anticancer activities of DNA-damaging drugs and inhibitors of DNA damage repair, both as single agents and in combinations. Complex tumor spheroids comprised of malignant cells, endothelial cells and mesenchymal stem cells served as an in vitro model for human solid tumors. This model system incorporates physiologically relevant features and patient-derived or established malignant cell lines with clinically relevant genetic alterations from many tumor types. Twenty-six patient-derived or established malignant cell lines were evaluated representing sarcoma, melanoma, small cell lung cancer (SCLC), non-small cell lung cancer (NSCLC), as well as bladder, ovarian and pancreatic cancers. The concentration ranges selected for each drug and investigational agent were based upon clinically achievable concentrations if the clinical Cmax of the agent was known.
Compounds. The drugs and compounds olaparib (NSC753686), talazoparib (NSC767125), berzosertib (NSC777718), elimusertib (NSC800525), nedisertib (NSC802822), VX-984 (NSC792969), AZD-1390 (NSC803789), temozolomide (NSC362856), topotecan (NSC609699), trabectedin (NSC813783), staurosporine (NSC755774), and gemcitabine (NSC613327) were obtained from the National Cancer Institute (NCI) Developmental Therapeutics Program Chemical Repository. The FDA-approved anticancer drug set is available from the Developmental Therapeutics Program at https://dtp.cancer.gov/organization/dscb/obtaining/available_plates.htm. […] The stock solutions were prepared in dimethyl sulfoxide (DMSO, Sigma-Aldrich, St. Louis, MO, cat. D2650) at 400-fold the tested concentration and stored at -70 degrees C. Prior to their use, the stock solutions were diluted in fresh medium and the final DMSO concentration in the assay was 0.25% (v/v). All drugs and investigational agents were tested over a range starting from a high concentration at or near the clinical Cmax and decreasing in half-log increments. If the clinical Cmax for an agent had not been determined, the highest concentration tested was 10 microM.
Cell Lines. The patient-derived cancer cell (PDC) lines: 156681-154-R-J1-PDC, 283228-195-R-J1-PDC, 287954-098-R-J1-PDC, 292921-168-R-J2-PDC, 349418-098-R-PDC, 425362-245-T-J1-PDC, 556581-035-R-J1-PDC, and BL0293-F563-PDC were received from the NCI Patient-Derived Models Repository (PDMR, https://pdmr.cancer.gov). The established cell lines HS-SY-2 (RRID:CVCL_8719), MPNST, and SYO-1 (RRID:CVCL_7146) were obtained from the Sloan Kettering Institute. The alveolar soft parts sarcoma cell line ASPS-1 (RRID:CVCL_S738) was established at the NCI and grown from internal seed stocks. The following established cell lines were purchased from the American Type Culture Collection (ATCC, Manassas, VA): G-401 (ATCC, cat. CRL-1441, RRID:CVCL_0270), SW982 (ATCC, cat. HTB-93, RRID:CVCL_1734), VA-ES-BJ (ATCC, cat. CRL-2138, RRID:CVCL_1785), NCI-H719 (ATCC, cat. CRL-5837, RRID:CVCL_1582), NCI-H196 (ATCC, cat. CRL-5823, RRID:CVCL_1509), NCI-H841 (ATCC, cat. CRL-5845, RRID:CVCL_1595), NCI-H1618 (ATCC, cat. CRL-5879, RRID:CVCL_1480), NCI-H1876 (ATCC, cat. CRL-5902, RRID:CVCL_1503), DMS 114 (ATCC, cat. CRL-2066; RRID:CVCL_1174), NCI-H211 (ATCC, cat. CRL-5824; RRID:CVCL_1529), and SW 1271 (ATCC, cat. CRL-2177, RRID:CVCL_1716). The small cell lung cancer cell line COR-L88 was purchased from Sigma-Aldrich (cat. 92031917-1VL, RRID:CVCL_1141). The non-small cell lung cancer cell lines NCI-H226 (RRID:CVCL_1544) and NCI-H322M (RRID:CVCL_1557) were established at the NCI and grown from internal seed stocks. Pooled donor human umbilical vein endothelial cells (HUVEC, Lonza, cat. CC-2519) and human mesenchymal stem cells (hMSC, Lonza, cat. PT-2501) were purchased from Lonza (Walkersville, MD).
Cell Culture. All cells were maintained in an incubator at 37 degrees C and 5% CO2 with 95% humidity. […]

[1] = curve of first compound, second compound 0.003 µM

Q: For `Cc1cc(C)c(CNC(=O)c2cc(-c3ccc(CN4CCOCC4)cc3)cc3c2cnn3C2CCCC2)c(=O)[nH]1` + COc1cc2c(cc1O)CCNC21CSC2c3c(OC(C)=O)c(C)c4c(c3C(COC1=O)N1C(O)C3Cc5cc(C)c(OC)c(O)c5C(C21)N3C)OCO4, which IC50 (curve of first compound, second compound 30 pM) is on record?
A: > 10000 nM

Q: What about the IC50 (curve of first compound, second compound 94.9 pM) of the same compound?
A: > 10000 nM

Q: And the IC50 (curve of first compound, second compound 0.0003 µM)?
A: 2460 nM

Q: And the IC50 (curve of first compound, second compound 0.000949 µM)?
A: < 31.6 nM

Q: What about the IC50 [1] of the same compound?
A: < 31.6 nM

Q: What about the viability, T/C (second compound 30 pM, first compound 0.0316 µM) of the same compound?
A: 107%

Q: And the viability, T/C (second compound 30 pM, first compound 0.1 µM)?
A: 93.7%

Q: What about the viability, T/C (second compound 30 pM, first compound 0.316 µM) of the same compound?
A: 102%

Q: What about the viability, T/C (second compound 30 pM, first compound 1 µM) of the same compound?
A: 85.3%

Q: And the viability, T/C (second compound 30 pM, first compound 3.16 µM)?
A: 73.8%

Q: What about the viability, T/C (second compound 30 pM, first compound 10 µM) of the same compound?
A: 60.2%

Q: And the viability, T/C (second compound 94.9 pM, first compound 0.0316 µM)?
A: 98.4%

Q: What about the viability, T/C (second compound 94.9 pM, first compound 0.1 µM) of the same compound?
A: 107%

Q: And the viability, T/C (second compound 94.9 pM, first compound 0.316 µM)?
A: 104%

Q: And the viability, T/C (second compound 94.9 pM, first compound 1 µM)?
A: 86.9%

Q: What about the viability, T/C (second compound 94.9 pM, first compound 3.16 µM) of the same compound?
A: 79.2%

Q: And the viability, T/C (second compound 94.9 pM, first compound 10 µM)?
A: 51.1%

Q: What about the viability, T/C (second compound 0.0003 µM, first compound 0.0316 µM) of the same compound?
A: 63.8%

Q: And the viability, T/C (second compound 0.0003 µM, first compound 0.1 µM)?
A: 67.3%

Q: And the viability, T/C (second compound 0.0003 µM, first compound 0.316 µM)?
A: 62.6%

Q: What about the viability, T/C (second compound 0.0003 µM, first compound 1 µM) of the same compound?
A: 50.4%

Q: What about the viability, T/C (second compound 0.0003 µM, first compound 3.16 µM) of the same compound?
A: 48.7%

Q: And the viability, T/C (second compound 0.0003 µM, first compound 10 µM)?
A: 42.2%

Q: And the viability, T/C (second compound 0.000949 µM, first compound 0.0316 µM)?
A: 49.3%

Q: And the viability, T/C (second compound 0.000949 µM, first compound 0.1 µM)?
A: 43.8%

Q: And the viability, T/C (second compound 0.000949 µM, first compound 0.316 µM)?
A: 39.7%

Q: What about the viability, T/C (second compound 0.000949 µM, first compound 1 µM) of the same compound?
A: 43.1%

Q: And the viability, T/C (second compound 0.000949 µM, first compound 3.16 µM)?
A: 35.2%

Q: What about the viability, T/C (second compound 0.000949 µM, first compound 10 µM) of the same compound?
A: 10.1%

Q: What about the viability, T/C (second compound 0.003 µM, first compound 0.0316 µM) of the same compound?
A: 1.12%

Q: What about the viability, T/C (second compound 0.003 µM, first compound 0.1 µM) of the same compound?
A: 1.08%

Q: What about the viability, T/C (second compound 0.003 µM, first compound 0.316 µM) of the same compound?
A: 0.94%

Q: And the viability, T/C (second compound 0.003 µM, first compound 1 µM)?
A: 1.18%

Q: What about the viability, T/C (second compound 0.003 µM, first compound 3.16 µM) of the same compound?
A: 0.93%

Q: What about the viability, T/C (second compound 0.003 µM, first compound 10 µM) of the same compound?
A: 0.96%

Q: With `CNCc1ccc(-c2cc(-c3nc(-c4ccc(S(=O)(=O)C(C)C)cc4)cnc3N)on2)cc1` + CC[C@@]1(O)C(=O)OCc2c1cc1n(c2=O)Cc2cc3c(CN(C)C)c(O)ccc3nc2-1 as the compound, how does the IC50 [1] read?
A: 497 nM

Q: What about the IC50 (curve of first compound, second compound 0.00949 µM) of the same compound?
A: 393 nM

Q: And the IC50 (curve of first compound, second compound 0.03 µM)?
A: 149 nM

Q: And the IC50 (curve of first compound, second compound 0.0949 µM)?
A: 22.6 nM

Q: What about the IC50 (curve of first compound, second compound 0.3 µM) of the same compound?
A: < 9.49 nM

Q: And the viability, T/C (second compound 0.003 µM, first compound 0.00949 µM)?
A: 94.4%

Q: And the viability, T/C (second compound 0.003 µM, first compound 0.03 µM)?
A: 102%

Q: What about the viability, T/C (second compound 0.003 µM, first compound 0.0949 µM) of the same compound?
A: 105%

Q: What about the viability, T/C (second compound 0.003 µM, first compound 0.3 µM) of the same compound?
A: 64.2%

Q: And the viability, T/C (second compound 0.003 µM, first compound 0.949 µM)?
A: 30.1%

Q: And the viability, T/C (second compound 0.003 µM, first compound 3 µM)?
A: 9.59%

Q: And the viability, T/C (second compound 0.00949 µM, first compound 0.00949 µM)?
A: 103%

Q: What about the viability, T/C (second compound 0.00949 µM, first compound 0.03 µM) of the same compound?
A: 99.7%

Q: And the viability, T/C (second compound 0.00949 µM, first compound 0.0949 µM)?
A: 88.2%

Q: And the viability, T/C (second compound 0.00949 µM, first compound 0.3 µM)?
A: 53.7%

Q: What about the viability, T/C (second compound 0.00949 µM, first compound 0.949 µM) of the same compound?
A: 30%

Q: And the viability, T/C (second compound 0.00949 µM, first compound 3 µM)?
A: 9.92%

Q: And the viability, T/C (second compound 0.03 µM, first compound 0.00949 µM)?
A: 60.8%

Q: What about the viability, T/C (second compound 0.03 µM, first compound 0.03 µM) of the same compound?
A: 63.6%

Q: What about the viability, T/C (second compound 0.03 µM, first compound 0.0949 µM) of the same compound?
A: 62.6%

Q: And the viability, T/C (second compound 0.03 µM, first compound 0.3 µM)?
A: 32.5%

Q: And the viability, T/C (second compound 0.03 µM, first compound 0.949 µM)?
A: 17.3%

Q: What about the viability, T/C (second compound 0.03 µM, first compound 3 µM) of the same compound?
A: 9.44%

Q: And the viability, T/C (second compound 0.0949 µM, first compound 0.00949 µM)?
A: 55.3%

Q: And the viability, T/C (second compound 0.0949 µM, first compound 0.03 µM)?
A: 49.5%

Q: What about the viability, T/C (second compound 0.0949 µM, first compound 0.0949 µM) of the same compound?
A: 24.9%

Q: What about the viability, T/C (second compound 0.0949 µM, first compound 0.3 µM) of the same compound?
A: 16.2%

Q: What about the viability, T/C (second compound 0.0949 µM, first compound 0.949 µM) of the same compound?
A: 11.7%

Q: And the viability, T/C (second compound 0.0949 µM, first compound 3 µM)?
A: 7.2%

Q: And the viability, T/C (second compound 0.3 µM, first compound 0.00949 µM)?
A: 43%

Q: What about the viability, T/C (second compound 0.3 µM, first compound 0.03 µM) of the same compound?
A: 29.2%

Q: And the viability, T/C (second compound 0.3 µM, first compound 0.0949 µM)?
A: 14.9%

Q: What about the viability, T/C (second compound 0.3 µM, first compound 0.3 µM) of the same compound?
A: 9.3%

Q: What about the viability, T/C (second compound 0.3 µM, first compound 0.949 µM) of the same compound?
A: 7.79%

Q: What about the viability, T/C (second compound 0.3 µM, first compound 3 µM) of the same compound?
A: 5.02%

Q: How did the viability, T/C (compound 0.0316 µM) turn out when `Cc1cc(C)c(CNC(=O)c2cc(-c3ccc(CN4CCOCC4)cc3)cc3c2cnn3C2CCCC2)c(=O)[nH]1` was run?
A: 92.8% and 89.3% and 93.7%

Q: What about the viability, T/C (compound 0.1 µM) of the same compound?
A: 102% and 98.3% and 89.8%

Q: What about the viability, T/C (compound 0.316 µM) of the same compound?
A: 101% and 100% and 96.4%

Q: And the viability, T/C (compound 1 µM)?
A: 84.1% and 93.3% and 95.8%

Q: What about the viability, T/C (compound 3.16 µM) of the same compound?
A: 85.2% and 88.7% and 77.4%

Q: And the viability, T/C (compound 10 µM)?
A: 44.7% and 56.8% and 52.6%

Q: What about the IC50 (curve of compound) of the same compound?
A: 8670 nM and > 10000 nM

Source: PubChem BioAssay AID1845201 (Molecular Pharmacology Branch, DTP, NCI, 2023)
